pIC50: −log10 of the molar value. “And” between values parts separate entries of the source, which are not always exact repeats. Identical values can stand only once. Like-named read-outs stand apart in the source and are kept apart here.
Key:
[1] = rcm bond, 70.0 °C
GSK3β = GSK3β (Homo sapiens, UniProt P49841); assay: GSK3β kinase assay (Caliper LabChip3000, fluoresceinated peptide substrate); format: biochemical; conditions: first value of cell; 250 pM enzyme, 20 uM ATP, 20 hours room temperature; read-out: GSK3β/α (nM): GSK3β IC50
Protocol: (§1) The kinase assay was performed in V-bottom 384-well plates. The final assay volume was 30 μl prepared from 15 μl additions of enzyme, substrates (fluoresceinated peptide FL-KRREILSRRP[ps]ERYR-NH2 and ATP) and test compounds in assay buffer (100 mM HEPES pH 7.4, 10 mM MgCl2, 25 mM Beta-Glycerolphosphate, 0.015% Brij35 and 0.25 mM DTT). The reaction was incubated at room temperature for 20 hours and terminated by adding 45 μl of 35 mM EDTA to each sample. The reaction mixture was analyzed on the Caliper LabChip3000 (Caliper, Hopkinton, Mass.) by electrophoretic separation of the unphosphorylated substrate and phosphorylated product. Inhibition data were calculated by comparison of the no enzyme control reactions for 100% inhibition and vehicle-only reactions for 0% inhibition. The final concentration of reagents in the assay were 250 pM GSK3α or GSK3β, 20 uM ATP, 1.5 uM FL-KRREILSRRP[ps]ERYR-NH2, and 1.6% DMSO. Dose response curves were generated to determine the concentration required to inhibit 50% of the kinase activity (IC50). Compounds were dissolved at 10 mM in dimethylsulfoxide (DMSO) and evaluated at eleven concentrations. IC50 values were derived by non-linear regression analysis.

GSK3α = GSK3α (Homo sapiens, UniProt P49840); assay: GSK3α kinase assay (Caliper LabChip3000, fluoresceinated peptide substrate); format: biochemical; conditions: second value of cell; 250 pM enzyme, 20 uM ATP, 20 hours room temperature; read-out: GSK3β/α (nM): GSK3α IC50
Protocol: as §1

pTau = pTau assay; format: cell-based

Sequence of GSK3α (P49840 whole entry, species assumed): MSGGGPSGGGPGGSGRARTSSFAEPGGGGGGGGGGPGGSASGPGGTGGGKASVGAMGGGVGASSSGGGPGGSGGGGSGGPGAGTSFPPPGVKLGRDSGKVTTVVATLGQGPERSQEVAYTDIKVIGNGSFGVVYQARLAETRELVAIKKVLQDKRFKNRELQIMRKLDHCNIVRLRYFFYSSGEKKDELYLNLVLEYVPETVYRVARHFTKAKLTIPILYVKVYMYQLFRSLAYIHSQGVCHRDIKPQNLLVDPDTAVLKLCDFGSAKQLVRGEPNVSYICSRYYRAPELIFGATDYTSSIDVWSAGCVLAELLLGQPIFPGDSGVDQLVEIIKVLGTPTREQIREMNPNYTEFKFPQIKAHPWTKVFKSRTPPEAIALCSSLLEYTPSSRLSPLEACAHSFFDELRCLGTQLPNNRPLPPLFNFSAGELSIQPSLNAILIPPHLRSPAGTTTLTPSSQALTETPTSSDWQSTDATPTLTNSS
Sequence of GSK3β (P49841 whole entry, species assumed): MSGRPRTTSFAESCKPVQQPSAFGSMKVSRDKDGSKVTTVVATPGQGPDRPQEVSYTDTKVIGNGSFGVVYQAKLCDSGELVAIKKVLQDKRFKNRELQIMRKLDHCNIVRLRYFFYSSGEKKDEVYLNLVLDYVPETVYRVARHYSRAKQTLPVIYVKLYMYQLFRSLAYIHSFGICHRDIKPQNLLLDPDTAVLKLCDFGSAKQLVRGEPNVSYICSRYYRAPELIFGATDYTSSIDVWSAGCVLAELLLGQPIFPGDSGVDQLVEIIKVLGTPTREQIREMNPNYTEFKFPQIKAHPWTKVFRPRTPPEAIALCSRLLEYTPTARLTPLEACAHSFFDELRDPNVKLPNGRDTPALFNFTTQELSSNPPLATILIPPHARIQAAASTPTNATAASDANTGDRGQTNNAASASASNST

Row | SMILES | IC50 (GSK3β) [nM] | IC50 (GSK3α) [nM] | pIC50 (pTau) | other results
1 | CC1(C)CC=CCN2CCN(CC2)c2cc(F)ncc2NC(=O)c2ccnc(n2)NC1 | – | – | – | ring closure, isolated yield ([1]; from C=CCN1CCN(c2cc(F)ncc2NC(=O)c2ccnc(NCC(C)(C)CC=C)n2)CC1, 18-membered ring, Zhan 1B, 1.5 h, 2 steps): 34%
2 | C[C@@H]1Nc2nccc(n2)C(=O)Nc2cnc(F)cc2N2CCN(CC=CCC1O)CC2 (some centres unmarked) | – | – | – | ring closure, isolated yield ([1]; from C=CCC(O)[C@H](C)Nc1nccc(C(=O)Nc2cnc(F)cc2N2CCN(CC=C)CC2)n1, 18-membered ring, Zhan 1B, ClCH2CH2Cl, 4.78 mM, 1.5 h): 29% and 26%
3 | O=C1Nc2cnc(F)cc2N2CCN(CC=CCC(O)CNc3nccc1n3)CC2 (centres unmarked) | – | – | – | ring closure, isolated yield ([1]; from C=CCC(O)CNc1nccc(C(=O)Nc2cnc(F)cc2N2CCN(CC=C)CC2)n1, 18-membered ring, Zhan 1B (30 mol%), ClCH2CH2Cl, 5.33 mM, 4.0 h): 50%
4 | O=C1Nc2cnc(F)cc2N2CCN(CC=CCC3(CC3)CNc3nccc1n3)CC2 | – | – | – | ring closure, isolated yield ([1]; from C=CCN1CCN(c2cc(F)ncc2NC(=O)c2ccnc(NCC3(CC=C)CC3)n2)CC1, 18-membered ring, Zhan 1B, ClCH2CH2Cl, 4.73 mM, 2.0 h): 79%
5 | O=C1Nc2cnc(F)cc2N2CCN(CC=CCCCNc3nccc1n3)CC2 | – | – | – | ring closure, isolated yield ([1]; from C=CCCCNc1nccc(C(=O)Nc2cnc(F)cc2N2CCN(CC=C)CC2)n1, 18-membered ring, Zhan 1B (20 mol%), ClCH2CH2Cl, 5.64 mM, 2.0 h): 65%
6 | O=C1Nc2cnc(F)cc2N2CCOC(C=CCCCNc3nccc1n3)C2 (centres unmarked) | – | – | – | ring closure, isolated yield ([1]; from C=CCCCNc1nccc(C(=O)Nc2cnc(F)cc2N2CCOC(C=C)C2)n1, 16-membered ring, Zhan 1B (40 mol%), ClCH2CH2Cl, 5.6 mM, 2.0 h): 46%
7 | O=C1Nc2cnccc2OCCC=CCCCNc2nccc1n2 | – | – | – | ring closure, isolated yield ([1]; from C=CCCCNc1nccc(C(=O)Nc2cnccc2OCCC=C)n1, 16-membered ring, Zhan 1B (30 mol%), ClCH2CH2Cl, 5.57 mM, 2.0 h): 23%
8 | O=C1Nc2cnccc2OCCC=CCNc2nccc1n2 (mixture of isomers) [Example 5, 5-Oxa-3,11-diaza-1(4,2)-pyrimidina-4(3,4)-pyridinacycloundecaphan-8-en-2-one] | 13.5 | 12.1 | 5.82 | ring closure, isolated yield ([1]; from C=CCCOc1ccncc1NC(=O)c1ccnc(NCC=C)n1, 14-membered ring, Zhan 1B (50 mol%), ClCH2CH2Cl, 4.55 mM, 2.0 h): 34%
9 | O=C1Nc2cnccc2OCCC=CCCNc2nccc1n2 (mixture of isomers) [Example 8, 5-Oxa-3,12-diaza-1(4,2)-pyrimidina-4(3,4)-pyridinacyclododecaphan-8-en-2-one] | 8.1 | 8.4 | 6.20 | ring closure, isolated yield ([1]; from C=CCCNc1nccc(C(=O)Nc2cnccc2OCCC=C)n1, 15-membered ring, Zhan 1B (50 mol%), ClCH2CH2Cl, 4.3 mM, 2.0 h): 46%
10 | O=C1Nc2cnc(F)cc2N2CCN(CC=CCC(O)C3(CC3)Nc3nccc1n3)CC2 (mixture of isomers) [Example 34, (E)-6′-fluoro-8′-hydroxyspiro[cyclopropane-1,7′-3,6-diaza-5(4,2)-pyrimidina-1(1,4)-piperazina-2(4,3)-pyridinacyclododecaphanen]-10′-en-4′-one] | 1270 | 2000 | 5.00 | ring closure, isolated yield ([1]; from C=CCC(O)C1(Nc2nccc(C(=O)Nc3cnc(F)cc3N3CCN(CC=C)CC3)n2)CC1, 18-membered ring, Zhan 1B, 1.5 h): 54%
11 | O=C1Nc2cnc(F)cc2N2CCN(C/C=C/CCCNc3nccc1n3)CC2 (single isomer, unassigned) [Example 23, (E)-2^6-fluoro-3,6-diaza-5(4,2)-pyrimidina-1(1,4)-piperazina-2(4,3)-pyridinacyclododecaphan-10-en-4-one] | 0.5 | 0.6 | 7.74 | –
12 | C[C@@H]1Nc2nccc(n2)C(=O)Nc2cnc(F)cc2N2CCN(C/C=C/CC1O)CC2 (single isomer, unassigned) [Example 36] | 10.8 | 18.5 | 6.69 | –
13 | O=C1Nc2cnccc2OCCCCCNc2nccc1n2 [Example 6, 5-Oxa-3,11-diaza-1(4,2)-pyrimidina-4(3,4)-pyridinacycloundecaphan-2-one] | 28.6 | 21.2 | 6.04 | –
14 | O=C1Nc2cnccc2OCCCCCCNc2nccc1n2 [Example 9, 5-Oxa-3,12-diaza-1(4,2)-pyrimidina-4(3,4)-pyridinacyclododecaphan-2-one] | 5.2 | 6.2 | 6.84 | –
15 | O=C1Nc2cnc(F)cc2N2CCOC(/C=C/CCCNc3nccc1n3)C2 (centres unmarked) [Example 14, (E)-2^6-Fluoro-3,6-diaza-1(4,2)-morpholina-5(4,2)-pyrimidina-2(4,3)-pyridinacycloundecaphan-10-en-4-one] | 12.5 | 20.2 | 6.20 | –
16 | O=C1Nc2cnc(F)cc2N2CCOC(CCCCCNc3nccc1n3)C2 (centres unmarked) [Example 15, 2^6-Fluoro-3,6-diaza-1(4,2)-morphohna-5(4,2)-pyrimidina-2(4,3)-pyridinacycloundecaphan-4-one] | 22.3 | 34 | 5.72 | –
17 | O=C1Nc2cnccc2OCC/C=C/CCCNc2nccc1n2 [Example 17, (E)-5-Oxa-3,13-diaza-1(4,2)-pyrimidina-4(3,4)-pyridinacyclotridecaphan-8-en-2-one] | 1.3 | 3.3 | 7.04 | –
18 | O=C1Nc2cnccc2OCCCCCCCNc2nccc1n2 [Example 18, 5-Oxa-3,13-diaza-1(4,2)-pyrimidina-4(3,4)-pyridinacyclotridecaphan-2-one] | 3.1 | 6.7 | 6.58 | –
19 | O=C1Nc2cnc(F)cc2N2CCN(CCCCCCNc3nccc1n3)CC2 [Example 24, 2^6-Fluoro-3,6-diaza-5(4,2)-pyrimidina-1(1,4)-piperazina-2(4,3)-pyridinacyclododecaphan-4-one] | 2 | 3.6 | 6.91 | –
20 | O=C1Nc2cnc(F)cc2N2CCN(C/C=C/CC(O)CNc3nccc1n3)CC2 (centres unmarked) [Example 26, (E)-2^6-fluoro-8-hydroxy-3,6-diaza-5(4,2)-pyrimidina-1(1,4)-piperazina-2(4,3)-pyridinacyclododecaphan-10-en-4-one] | 3.3 | 4.3 | 6.79 | –
21 | O=C1Nc2cnc(F)cc2N2CCN(C/C=C\CCC(O)CNc3nccc1n3)CC2 (centres unmarked) [Example 29, (Z)-2^6-fluoro-8-hydroxy-3,6-diaza-5(4,2)-pyrimidina-1(1,4)-piperazina-2(4,3)-pyridinacyclotridecaphan-11-en-4-one] | 29 | 30.4 | 5.58 | –
22 | O=C1Nc2cnc(F)cc2N2CCN(C/C=C/CC(F)CNc3nccc1n3)CC2 (centres unmarked) [Example 30, (E)-2^6,8-Difluoro-3,6-diaza-5(4,2)-pyrimidina-1(1,4)-piperazina-2(4,3)-pyridinacyclododecaphan-10-en-4-one] | – | 15.5 | 6.75 | –
23 | CC1(C)C/C=C/CN2CCN(CC2)c2cc(F)ncc2NC(=O)c2ccnc(n2)NC1 [Example 32, (E)-2^6-Fluoro-8,8-dimethyl-3,6-diaza-5(4,2)-pyrimidina-1(1,4)-piperazina-2(4,3)-pyridinacyclododecaphan-10-en-4-one] | – | 2 | 7.10 | –
24 | C[C@@H]1Nc2nccc(n2)C(=O)Nc2cnc(F)cc2N2CCN(C/C=C/C[C@@H]1O)CC2 [Example 37, (7S,8S,E)-2^6-fluoro-8-hydroxy-7-methyl-3,6-diaza-5(4,2)-pyrimidina-1(1,4)-piperazina-2(4,3)-pyridinacyclododecaphan-10-en-4-one] | 7.3 | 17 | 6.39 | –
25 | CC1(O)C/C=C/CN2CCN(CC2)c2cc(F)ncc2NC(=O)c2ccnc(n2)NC1 (centres unmarked) [Example 39, (E)-2^6-Fluoro-8-hydroxy-8-methyl-3,6-diaza-5(4,2)-pyrimidina-1(1,4)-piperazina-2(4,3)-pyridinacyclododecaphan-10-en-4-one] | 4.1 | 8 | 6.43 | –
26 | CC1(O)CCCCCOc2ccncc2NC(=O)c2ccnc(n2)NC1 (centres unmarked) [Example 42, 11-Hydroxy-11-methyl-5-oxa-3,13-diaza-1(4,2)-pyrimidina-4(3,4)-pyridinacyclotridecaphan-2-one] | 1.4 | 3.2 | 7.02 | –
27 | O=C1Nc2cnc(F)cc2N2CCN(C/C=C\CC3(CC3)CNc3nccc1n3)CC2 [Example 44, (Z)-6′-fluorospiro[cyclopropane-1,8′-3,6-diaza-5(4,2)-pyrimidina-1(1,4)-piperazina-2(4,3)-pyridinacyclododecaphanen]-10′-en-4′-one] | 12.5 | 21.1 | 5.79 | –
